Results taken from patent US9326986B2, “Quinazolinone, quinolone and related analogs as sirtuin modulators” (GLAXOSMITHKLINE LLC, priority 2008, dated 2016).

Target: T1, SIRT1 (Homo sapiens, UniProt Q96EB6)
T1 sequence (Q96EB6 1-747): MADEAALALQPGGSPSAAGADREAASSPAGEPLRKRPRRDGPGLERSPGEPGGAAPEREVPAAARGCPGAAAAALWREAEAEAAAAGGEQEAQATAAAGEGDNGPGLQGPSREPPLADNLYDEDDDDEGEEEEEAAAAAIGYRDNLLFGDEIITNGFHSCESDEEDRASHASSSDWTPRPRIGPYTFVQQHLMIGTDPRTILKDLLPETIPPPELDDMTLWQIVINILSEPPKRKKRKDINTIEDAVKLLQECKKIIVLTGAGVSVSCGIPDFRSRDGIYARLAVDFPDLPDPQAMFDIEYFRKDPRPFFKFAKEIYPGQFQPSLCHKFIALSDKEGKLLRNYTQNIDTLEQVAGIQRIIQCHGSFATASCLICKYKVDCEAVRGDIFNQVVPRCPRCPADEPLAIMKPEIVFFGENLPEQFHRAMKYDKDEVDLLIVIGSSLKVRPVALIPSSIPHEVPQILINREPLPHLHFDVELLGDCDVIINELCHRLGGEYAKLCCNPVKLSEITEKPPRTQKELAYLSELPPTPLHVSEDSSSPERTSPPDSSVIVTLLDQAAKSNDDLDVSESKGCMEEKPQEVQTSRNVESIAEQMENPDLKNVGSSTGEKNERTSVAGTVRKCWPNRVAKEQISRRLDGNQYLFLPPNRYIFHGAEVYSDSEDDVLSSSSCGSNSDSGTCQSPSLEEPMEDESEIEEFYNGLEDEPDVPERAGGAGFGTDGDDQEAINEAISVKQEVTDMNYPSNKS
Assay: Mass spectrometry based assay to identify modulators of SIRT1 activity (deacetylation of p53-based acetylated peptide)
Format: biochemical
Settings: 10 nM SIRT1, 0.5 μM peptide substrate, 120 μM βNAD+, 25 minutes at 25° C.; for EC1.5 μM: SIRT1 activation
From the text: A mass spectrometry based assay was used to identify modulators of SIRT1 activity. The mass spectrometry based assay utilizes a peptide having 20 amino acid residues as follows: Ac-EE-K(biotin)-GQSTSSHSK(Ac)NleSTEG-K(5TMR)-EE-NH2 (SEQ ID NO: 1) wherein K(Ac) is an acetylated lysine residue and Nle is a norleucine. The peptide is labeled with the fluorophore 5TMR (excitation 540 nm/emission 580 nm) at the C-terminus. The sequence of the peptide substrate is based on p53 with several modifications. In addition, the methionine residue naturally present in the sequence was replaced with the norleucine because the methionine may be susceptible to oxidation during synthesis and purification.
The mass spectrometry assay is conducted as follows: 0.5 μM peptide substrate and 120 μM βNAD^+ is incubated with 10 nM SIRT1 for 25 minutes at 25° C. in a reaction buffer (50 mM Tris-acetate pH 8, 137 mM NaCl, 2.7 mM KCl, 1 mM MgCl2, 5 mM DTT, 0.05% BSA). Test compounds may be added to the reaction as described above. […] After the 25 minute incubation with SIRT1, 10 μL of 10% formic acid is added to stop the reaction. Reactions are sealed and frozen for later mass spec analysis. Determination of the mass of the substrate peptide allows for precise determination of the degree of acetylation (i.e. starting material) as compared to deacetylated peptide (product).
A control for inhibition of sirtuin activity is conducted by adding 1 μL of 500 mM nicotinamide as a negative control at the start of the reaction (e.g., permits determination of maximum sirtuin inhibition). A control for activation of sirtuin activity is conducted using 10 nM of sirtuin protein, with 1 μL of DMSO in place of compound, to determine the amount of deacetylation of the substrate at a given timepoint within the linear range of the assay. This timepoint is the same as that used for test compounds and, within the linear range, the endpoint represents a change in velocity.
For the above assay, SIRT1 protein was expressed and purified as follows. […] The protein was expressed by induction with 1 mM IPTG as an N-terminal His-tag fusion protein at 18° C. overnight and harvested at 30,000×g. Cells were lysed with lysozyme in lysis buffer (50 mM Tris-HCl, 2 mM Tris[2-carboxyethyl]phosphine (TCEP), 10 μM ZnCl2, 200 mM NaCl) and further treated with sonication for 10 min for complete lysis. The protein was purified over a Ni-NTA column (Amersham) and fractions containing pure protein were pooled, concentrated and run over a sizing column (Sephadex S200 26/60 global). The peak containing soluble protein was collected and run on an Ion-exchange column (MonoQ). Gradient elution (200 mM-500 mM NaCl) yielded pure protein. This protein was concentrated and dialyzed against dialysis buffer (20 mM Tris-HCl, 2 mM TCEP) overnight. The protein was aliquoted and frozen at −80° C. until further use.
Sirtuin modulating compounds that activated SIRT1 were identified using the assay described above and are shown below in Tables 1 and 2. The EC1.5 values for the activating compounds are represented by A (EC1.5<1.0 μM), B (EC1.5 1-25 μM), C (EC1.5>25 μM). The percent maximum fold activation is represented by A (Fold activation>200%) or B (Fold Activation<200%).

% Fold Act. (percent maximum fold activation) | EC1.5 μM | SMILES
B (Fold Activation<200%) | C (EC1.5>25 μM) | Cn1cncc1-c1nc2c(C(=O)Nc3ccccn3)cccc2c(=O)n1C [Compound 262]
B (Fold Activation<200%) | C (EC1.5>25 μM) | Cn1c(-c2cncnc2)nc2c(C(=O)Nc3ccccn3)cccc2c1=O [Compound 260]
A (Fold activation>200%) | A (EC1.5<1.0 μM) | O=C(Nc1nccs1)c1cncc2c(=O)cc(-c3cccc(C(F)(F)F)c3)[nH]c12 [Compound 449, 4-oxo-N-(thiazol-2-yl)-2-(3-(trifluoromethyl)phenyl)-1,4-dihydro-1,6-naphthyridine-8-carboxamide]
A (Fold activation>200%) | A (EC1.5<1.0 μM) | Cn1c(-c2cccc(C(F)(F)F)c2)nc2c(C(=O)Nc3cccc(CN4CCNCC4)n3)cccc2c1=O [Compound 348]
A (Fold activation>200%) | B (EC1.5 1-25 μM) | Cn1c(-c2ccc(N3CCOCC3)cc2)nc2c(C(=O)Nc3ccccn3)cccc2c1=O [Compound 217]
B (Fold Activation<200%) | C (EC1.5>25 μM) | Cn1c(-c2cccc(C(F)(F)F)c2)nc2c(NS(=O)(=O)c3ccccn3)cccc2c1=O [Compound 362]
A (Fold activation>200%) | A (EC1.5<1.0 μM) | Cn1c(-c2cccc(OC(F)F)c2)nc2c(NC(=O)c3cnccn3)cccc2c1=O [Compound 315]
A (Fold activation>200%) | A (EC1.5<1.0 μM) | Cn1c(-c2cccc(C(F)(F)F)c2)nc2c(C(=O)Nc3cccc(CN4CC[C@@H](F)C4)n3)cccc2c1=O [Compound 345]
A (Fold activation>200%) | A (EC1.5<1.0 μM) | O=C(Nc1cccc2c(=O)cc(-c3cccc(C(F)(F)F)c3)[nH]c12)c1ccccn1 [Compound 408]
B (Fold Activation<200%) | C (EC1.5>25 μM) | O=C(Nc1ccccn1)c1cccc2c(=O)[nH]c(-c3cccc(C(F)F)c3)nc12 [Compound 319]
A (Fold activation>200%) | B (EC1.5 1-25 μM) | O=C(NC1CCOCC1)c1cccc2c(=O)cc(-c3cccc(C(F)(F)F)c3)[nH]c12 [Compound 412]
A (Fold activation>200%) | A (EC1.5<1.0 μM) | Cn1c(-c2ccccc2OC(F)F)nc2c(NC(=O)c3cnccn3)cccc2c1=O [Compound 312]
A (Fold activation>200%) | B (EC1.5 1-25 μM) | Cc1ncsc1-c1nc2c(NC(=O)c3cnccn3)cccc2c(=O)n1C [Compound 284]
B (Fold Activation<200%) | C (EC1.5>25 μM) | Cn1nccc1-c1nc2c(NC(=O)c3cnccn3)cccc2c(=O)n1C [Compound 292]
A (Fold activation>200%) | A (EC1.5<1.0 μM) | O=C(Nc1cccc2c(=O)[nH]c(-c3ccccc3OC(F)F)nc12)c1cnccn1 [Compound 313]
B (Fold Activation<200%) | C (EC1.5>25 μM) | Cn1c(-c2cccc(OC(F)(F)F)c2)nc2c(NC(=O)c3cscn3)cccc2c1=O [Compound 203]

% Fold Act. (percent maximum fold activation) | EC1.5 μM | SMILES
A (Fold activation>200%) | A (EC1.5<1.0 μM) | Cn1c(-c2cccc(C(F)(F)F)c2)nc2c(C(=O)Nc3cnccn3)cccc2c1=O [Compound 219]
A (Fold activation>200%) | A (EC1.5<1.0 μM) | CC(C)n1c(-c2cccc(C(F)(F)F)c2)nc2c(NC(=O)c3cnccn3)cccc2c1=O [Compound 267]
B (Fold Activation<200%) | C (EC1.5>25 μM) | Cn1c(-c2ccc(CN3CCCC3)cc2)nc2c(C(=O)Nc3ccccn3)cccc2c1=O [Compound 275, 3-methyl-4-oxo-N-(pyridin-2-yl)-2-(4-(pyrrolidin-1-ylmethyl)phenyl)-3,4-dihydroquinazoline-8-carboxamide]
B (Fold Activation<200%) | C (EC1.5>25 μM) | Cn1cc(-c2nc3c(C(=O)Nc4ccccn4)cccc3c(=O)n2C)cn1 [Compound 263]
A (Fold activation>200%) | B (EC1.5 1-25 μM) | Cn1c(-c2cccc(C(F)(F)F)c2)nc2c(NC(=O)c3cccc(CN4CCCC4)c3)cccc2c1=O [Compound 364]
A (Fold activation>200%) | A (EC1.5<1.0 μM) | O=C(Nc1cnccn1)c1cccc2c(=O)cc(-c3cccc(C(F)F)c3)[nH]c12 [Compound 432]
A (Fold activation>200%) | B (EC1.5 1-25 μM) | Cn1c(-c2cccc(N3CCOCC3)c2)nc2c(C(=O)Nc3ccccn3)cccc2c1=O [Compound 209]
B (Fold Activation<200%) | B (EC1.5 1-25 μM) | Cn1c(-c2cccc(C(F)(F)F)c2)nc2c(NC(=O)c3cncs3)cccc2c1=O [Compound 229]
A (Fold activation>200%) | B (EC1.5 1-25 μM) | Cn1c(-c2ccccc2OC(F)F)nc2c(C(=O)Nc3ccccn3)cccc2c1=O [Compound 327]
A (Fold activation>200%) | A (EC1.5<1.0 μM) | O=C(Nc1nccs1)c1cccc2c(=O)cc(-c3cccc(C(F)(F)F)c3)[nH]c12 [Compound 404]
A (Fold activation>200%) | A (EC1.5<1.0 μM) | Cn1c(-c2cccc(C(F)(F)F)c2)nc2c(C(=O)Nc3nc(CN4CCOCC4)cs3)cccc2c1=O [Compound 309]
A (Fold activation>200%) | A (EC1.5<1.0 μM) | CCc1nnc(NC(=O)c2cccc3c(=O)cc(-c4cccc(C(F)(F)F)c4)[nH]c23)s1 [Compound 400]
A (Fold activation>200%) | A (EC1.5<1.0 μM) | O=C(Nc1cccc2c(=O)cc(-c3cccc(C(F)(F)F)c3)[nH]c12)c1ccncn1 [Compound 418]
B (Fold Activation<200%) | C (EC1.5>25 μM) | Cn1c(-c2cscn2)nc2c(C(=O)Nc3ccccn3)cccc2c1=O [Compound 225]
A (Fold activation>200%) | A (EC1.5<1.0 μM) | O=C(Nc1nccs1)c1cccc2c(=O)cc(-c3cccc(OC(F)(F)F)c3)[nH]c12 [Compound 429]
